Reference: PubChem BioAssay (NCI)
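96-well plates; 48 h exposure; 5 concentrations. Endpoints by linear interpolation between flanking doses. Not reached: highest tested concentration assigned. TGI marks complete inhibition of growth.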

How the values were obtained:
Assay in all cases: inhibition of tumour cell growth, NCI panel, 48 h
[1] = tested on: RXF 393 renal
[2] = tested on: SF-268 CNS
[3] = tested on: SK-MEL-28 melanoma
[4] = tested on: SW-620 colon
[5] = tested on: NCI-H522 lung
[6] = tested on: T-47D breast
[7] = tested on: UACC-257 melanoma
[8] = tested on: HOP-62 NSCLC
[9] = tested on: UO-31 renal
[10] = tested on: OVCAR-5 ovarian
[11] = tested on: HL-60(TB) leukemia
[12] = tested on: SK-MEL-5 melanoma
[13] = tested on: NCI-H460 lung
[14] = tested on: SF-295 CNS
[15] = tested on: KM12 colon
[16] = tested on: MDA-N
[17] = tested on: MOLT-4 leukemia
[18] = tested on: HS 578T breast
[19] = tested on: MALME-3M melanoma

Compound	TGI [1] [µM]	TGI [2] [µM]	TGI [3] [µM]	TGI [4] [µM]	TGI [5] [µM]	TGI [6] [µM]	TGI [7] [µM]	TGI [8] [µM]	TGI [9] [µM]	TGI [10] [µM]	TGI [11] [µM]	TGI [12] [µM]	TGI [13] [µM]	TGI [14] [µM]	TGI [15] [µM]	TGI [16] [µM]	TGI [17] [µM]	TGI [18] [µM]	TGI [19] [µM]
CC1=NN(c2cccc(Cl)c2)C2(SCC(=O)N2c2nc3ccccc3s2)/C1=C\c1ccccc1O (configuration not stated)	32.8	64.7	> 100	35.8	42.4	37.9	> 100	54.7	38.5	> 100	52.1	32.3	> 100	> 100	45.1	53.4	42.3	65.5	–
Cc1cc(N(CCOS(C)(=O)=O)CCOS(C)(=O)=O)ccc1C=O	–	> 100	31.3	> 100	0.379	–	48	–	35.1	33.8	> 100	> 100	6.35	> 100	54.6	26.4	14.8	94	28.1
O=c1c2sc(=S)n(-c3ccc(F)cc3)c2ncn1/N=C/c1ccc(F)cc1F	45.5	43.1	> 100	> 100	> 100	–	> 100	30.7	89.8	> 100	> 100	> 100	> 100	65.8	> 100	> 100	–	76.3	41.6
CCN(CC)CCN(C(=Nc1ccccc1)N1CCOCC1)c1ccccc1	> 100	> 100	> 100	> 100	> 100	> 100	> 100	> 100	> 100	–	> 100	> 100	> 100	> 100	> 100	–	> 100	> 100	> 100
CCCCCCOc1ccc(C(=O)NOC)cc1	> 100	> 100	> 100	> 100	> 100	–	> 100	> 100	> 100	> 100	86.8	> 100	> 100	> 100	> 100	> 100	> 100	> 100	–
CCOP(=O)(OCC)C(c1ccc(F)cc1)N(C(=O)NC(F)(F)F)c1ccc(OC)cc1 (configuration not stated)	> 100	> 100	> 100	> 100	> 100	–	> 100	> 100	> 100	> 100	> 100	> 100	> 100	> 100	> 100	> 100	> 100	> 100	> 100
O=C(CC(C(=O)c1ccsc1)c1ccc2c(c1)OCO2)c1ccccc1 (configuration not stated)	> 100	> 100	> 100	> 100	> 100	> 100	> 100	> 100	> 100	> 100	> 100	> 100	> 100	> 100	> 100	> 100	> 100	> 100	–
CC1CCC(C(=O)O)(C(Br)C(=O)O)CC1 (configuration not stated)	> 100	–	> 100	> 100	–	–	> 100	> 100	> 100	> 100	> 100	> 100	> 100	> 100	> 100	> 100	> 100	–	–
CCOC(=O)Cn1c(=O)c2nc(SC)sc2n(-c2ccccc2)c1=O	> 100	–	> 100	> 100	–	–	> 100	> 100	> 100	> 100	> 100	> 100	> 100	–	> 100	> 100	> 100	> 100	> 100
[O-][n+]1ccccc1Sc1nc(Sc2cccc[n+]2[O-])nc(Sc2cccc[n+]2[O-])n1	2.23	10.1	3.25	–	2.23	8.85	6.23	9.17	3.25	3.61	> 100	3.07	4.22	11.1	3.88	–	–	10.9	4.06
O=C1NCCN1/N=C/c1c(Cl)n(-c2ccccc2)c2ccccc12	–	59	–	53.4	44.4	41	58.5	> 100	46.3	> 100	> 100	29.3	–	> 100	34.2	21.6	> 100	43.8	42.7
OCCc1ccsc1-c1sc(-c2cc(CCO)c(-c3sccc3CCO)s2)cc1CCO	9.05	14	41.4	> 100	25.7	–	34.4	27.6	31.4	32.4	–	52.9	32.5	30.3	11.5	63.5	> 100	–	23.7
COc1cccc2c1OC1(C=C2)Oc2ccccc2C(=O)N1C (configuration not stated)	> 100	> 100	> 100	> 100	> 100	99	> 100	> 100	> 100	> 100	75.9	> 100	98.6	97.9	> 100	44.9	81.4	81.8	–
COc1ccc2c(C)cc(=O)oc2c1OC	–	> 100	> 100	> 100	–	–	> 100	> 100	> 100	> 100	–	> 100	–	> 100	> 100	> 100	> 100	> 100	> 100
CCCCC(C(=O)NCCNC(=O)CCC(=O)N(C)O)C(=O)NCCNC(=O)CCC(=O)N(C)O	> 100	–	> 100	> 100	> 100	> 100	> 100	> 100	> 100	> 100	> 100	> 100	> 100	> 100	> 100	> 100	> 100	–	> 100
CN(C)C1(N(C)C)Oc2c(c(=O)n(C)c(=O)n2C)C(c2ccc(Br)cc2)C1(F)F (configuration not stated)	> 100	> 100	> 100	> 100	–	> 100	> 100	> 100	> 100	> 100	–	> 100	> 100	> 100	> 100	–	> 100	–	–
Cc1ccc(-c2[nH]c(=O)n(C3OC(CO)C(O)C(O)C3O)c(=O)c2C#N)cc1 (configuration not stated)	> 100	> 100	> 100	> 100	> 100	> 100	> 100	> 100	> 100	> 100	> 100	> 100	> 100	> 100	> 100	–	> 100	> 100	–
N#Cc1c(-c2ccccc2)/c(=C\Nc2ccc(F)cc2)c(=O)n2c1nc1ccccc12	52.3	> 100	> 100	> 100	34.3	> 100	> 100	10.8	45.6	> 100	–	> 100	> 100	> 100	> 100	57.9	–	–	52.7
COc1cccc(CCCNC(=O)Cc2cc(OC)c(OC)cc2CO)c1	–	–	> 100	> 100	–	> 100	> 100	> 100	> 100	> 100	> 100	> 100	> 100	–	> 100	> 100	> 100	> 100	> 100
COc1ccc(-c2nc(SCC(=O)N/N=C/c3ccc(N(C)C)cc3)[nH]c2-c2ccc(OC)cc2)cc1	> 100	> 100	> 100	> 100	> 100	> 100	> 100	> 100	> 100	> 100	> 100	> 100	> 100	> 100	> 100	> 100	–	–	> 100
COc1ccc(C2=N/C(=C\c3ccccc3)C(=O)O2)cc1	> 100	> 100	> 100	> 100	–	–	> 100	> 100	–	> 100	31	–	> 100	> 100	> 100	–	52.6	> 100	–
COc1ccc(NC(=O)CC(=O)N2N=C(N3c4ccccc4Sc4ccccc43)CC2c2ccccc2)cc1 (configuration not stated)	> 100	82.9	> 100	> 100	> 100	> 100	> 100	> 100	> 100	> 100	> 100	> 100	> 100	> 100	> 100	–	> 100	96.9	–
CN(C)c1ccc(S(=O)Nc2ccccc2)cc1 (configuration not stated)	–	> 100	> 100	> 100	> 100	65.6	92.9	> 100	> 100	> 100	> 100	50.7	> 100	> 100	57.1	–	> 100	> 100	> 100
O=c1[nH]c(Nc2nc3ccccc3[nH]2)nc(O)c1-c1ccccc1	> 100	> 100	> 100	> 100	> 100	–	> 100	> 100	> 100	> 100	–	> 100	> 100	> 100	–	> 100	–	> 100	> 100
CCOC(=O)C1=C(C)C2C=C(c3cccs3)CC(c3ccc(Cl)cc3)=C2OC1=O (configuration not stated)	> 100	> 100	> 100	> 100	> 100	66.5	> 100	> 100	> 100	> 100	31.6	> 100	> 100	> 100	39.8	> 100	> 100	> 100	–
COc1cc(NS(C)(=O)=O)ccc1Nc1cc(C)[nH]c2ccc3nccc3c12	–	> 100	> 100	> 100	> 100	> 100	> 100	> 100	> 100	> 100	> 100	> 100	> 100	> 100	> 100	> 100	–	> 100	–
COc1cc(/C=C/C(=O)CC(=O)/C=C/c2ccc(OC(=O)CCCCC3CCSS3)c(OC)c2)ccc1OC(=O)CCCCC1CCSS1 (configuration not stated)	> 100	> 100	> 100	> 100	> 100	–	> 100	> 100	> 100	> 100	> 100	> 100	> 100	> 100	> 100	> 100	> 100	> 100	> 100
c1c[nH]c(-c2ccc(-c3ccc[nH]3)c3nsnc23)c1	> 66.8	> 100	> 100	> 100	> 100	–	> 100	> 80.1	> 74.7	> 96.1	> 100	> 100	> 100	> 100	> 100	> 100	> 45.8	> 100	–
